The structures appear in SMILES notation. Active and inactive are the calls of the source. No cut-off for these calls is given here.

A word on the IC50: it is the concentration that gives 50% inhibition.

For series [1], the system named is PC-3. In words: Induction of apoptosis in human PC-3 cells assessed as necrotic cells at 2.5 uM by Annexin V-FITC staining based flow cytometry (reference value: 0.48%). The format is functional.
In series [2] the test system is PC-3. The series is described as follows: Antitumor activity against human PC-3 cells xenografted in BALB/c mouse assessed as reduction in number of CD31-positive cells in tumor tissue at ip administrated once every 4 days for 24 days by DAPI staining based immunohistochemical analysis. Format: functional, organism-based. Particulars: time 24.0 day. (In general: Xenograft models place foreign cells or tissue in a host animal.)

Series [3] concerns the target T1, Epidermal growth factor receptor (Homo sapiens, UniProt P00533). In words: Inhibition of EGFR in human PC-3 cells assessed as downregulation of AKT phosphorylation at 2.5 uM incubated for 15 mins by Western blotting analysis. The format is cell-based.
Series [4] in a line: Toxicity in BALB/c mouse xenografted with human PC-3 cells assessed as change in blood urea nitrogen level at 5 mg/kg,ip administrated once every 4 days for 24 days by automatic biochemical analyzer. Particulars: in vivo, 576 h, time 24 day. Format: organism-based.
A short description of series [5]: Toxicity in BALB/c mouse xenografted with human PC-3 cells assessed as change in AST level at 20 mg/kg,ip administrated once every 4 days for 24 days by automatic biochemical analyzer. The format is organism-based. Particulars: in vivo, 576 h, time 24 day.
Series [6] relates to PC-3. The series is described as follows: Antiproliferative activity against human PC-3 cells transfected with SOS1 shRNA assessed as inhibition of cell growth incubated for 72 hrs by MTT assay. The note with it: PC-3, 72 h. Format: functional, cell-based. (Tetrazolium dyes change colour on reduction, which living cells bring about.)
Series [7] has as its system SK-LU-1. In words: Antiproliferative activity against human SK-LU-1 cells harboring KRAS G12D mutant assessed as inhibition of cell growth incubated for 72 hrs by MTT assay. Format: functional, cell-based. Particulars: SK-LU-1, 72 h.
Series [8] has as its target T1, Epidermal growth factor receptor. In words: Inhibition of EGFR in human PC-3 cells assessed as downregulation of EGF-mediated AKT phosphorylation at 0.5 uM incubated for 15 mins in presence of EGF by Western blotting analysis. The format is cell-based. For orientation: Immunoblotting shows a protein as a band on a membrane.
In series [9] the test system is PC-3. In words: Induction of apoptosis in human PC-3 cells assessed as upregulation of cleaved caspase-3 expression by Western blotting analysis. The format is functional, cell-based.
The target in series [10] is T2, Son of sevenless homolog 1 (Homo sapiens, UniProt Q07889).
T2 sequence (Q07889 whole entry): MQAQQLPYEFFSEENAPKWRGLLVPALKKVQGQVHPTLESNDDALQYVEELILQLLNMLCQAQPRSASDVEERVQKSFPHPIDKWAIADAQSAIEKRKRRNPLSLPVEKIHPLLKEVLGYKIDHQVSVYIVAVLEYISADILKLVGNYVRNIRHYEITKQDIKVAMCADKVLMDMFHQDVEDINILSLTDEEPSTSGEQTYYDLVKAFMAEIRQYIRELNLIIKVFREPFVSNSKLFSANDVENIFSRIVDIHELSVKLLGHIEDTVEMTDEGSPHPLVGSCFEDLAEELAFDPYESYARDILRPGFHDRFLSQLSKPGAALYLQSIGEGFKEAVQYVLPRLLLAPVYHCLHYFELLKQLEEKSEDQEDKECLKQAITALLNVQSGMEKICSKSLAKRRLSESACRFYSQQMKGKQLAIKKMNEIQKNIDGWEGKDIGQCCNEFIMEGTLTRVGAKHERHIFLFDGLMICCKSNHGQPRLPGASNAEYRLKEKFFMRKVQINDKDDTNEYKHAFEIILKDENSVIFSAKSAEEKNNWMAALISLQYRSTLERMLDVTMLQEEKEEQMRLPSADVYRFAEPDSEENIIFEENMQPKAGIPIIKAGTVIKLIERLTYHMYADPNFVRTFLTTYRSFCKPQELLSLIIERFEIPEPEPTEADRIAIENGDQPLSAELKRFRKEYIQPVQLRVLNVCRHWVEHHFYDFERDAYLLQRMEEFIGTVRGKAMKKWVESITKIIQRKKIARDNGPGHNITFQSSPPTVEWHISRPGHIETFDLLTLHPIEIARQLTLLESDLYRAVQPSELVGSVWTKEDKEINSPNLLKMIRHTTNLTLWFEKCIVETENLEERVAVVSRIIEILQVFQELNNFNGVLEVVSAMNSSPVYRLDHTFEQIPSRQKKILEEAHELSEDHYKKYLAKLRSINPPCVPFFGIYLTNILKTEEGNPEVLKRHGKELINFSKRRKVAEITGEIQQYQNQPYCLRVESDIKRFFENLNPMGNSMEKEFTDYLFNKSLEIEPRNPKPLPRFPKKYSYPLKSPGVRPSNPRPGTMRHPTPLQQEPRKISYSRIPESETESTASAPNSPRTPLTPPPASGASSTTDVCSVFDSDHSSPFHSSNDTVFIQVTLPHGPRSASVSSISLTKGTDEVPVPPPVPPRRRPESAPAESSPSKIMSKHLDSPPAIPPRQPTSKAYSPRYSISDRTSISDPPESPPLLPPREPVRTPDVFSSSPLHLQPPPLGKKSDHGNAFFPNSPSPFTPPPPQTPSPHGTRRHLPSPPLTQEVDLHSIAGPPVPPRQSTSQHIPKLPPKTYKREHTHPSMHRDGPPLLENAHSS
In words: Inhibition of human recombinant SOS1.

In series [11] the test system is PC-3. The series is described as follows: Antiproliferative activity against human PC-3 cells transfected with control shRNA assessed as inhibition of cell growth incubated for 72 hrs by MTT assay. Format: functional, cell-based. Particulars: PC-3, 72 h.
Series [12] is described as follows: Toxicity in BALB/c mouse xenografted with human PC-3 cells assessed as change in creatinine level at 5 mg/kg,ip administrated once every 4 days for 24 days by automatic biochemical analyzer. The format is organism-based. Particulars: in vivo, 576 h, time 24 day.
Series [13] is described as follows: Toxicity in BALB/c mouse xenografted with human PC-3 cells assessed as heart pathological change at 5 mg/kg,ip administrated once every 4 days for 24 days by hematoxylin and eosin staining based analysis. The format is organism-based. The note with it: in vivo, 576 h, time 24 day.
The subject of series [14] is PC-3. In words: Induction of cell cycle arrest in human PC-3 cells assessed as accumulation of cells at G1 phase at 0.5 uM by PI staining based flow cytometry (reference value: 75.66%). Format: functional.
Series [15] relates to HUVEC. In words: Inhibition of cell migration in HUVEC cells at 0.5 to 12.5 uM measured after 48 hrs by crystal violet staining based transwell invasion assay. Format: functional. The note with it: Homo sapiens, dose 0.5-12.5 µM.
Series [16] concerns PC-3. In words: Induction of cell cycle arrest in human PC-3 cells assessed as downregulation of CDK4 expression by Western blotting analysis. The format is functional, cell-based.
In series [17] the test system is PC-3. In words: Induction of apoptosis in human PC-3 cells assessed as late apoptotic cells at 0.5 uM by Annexin V-FITC staining based flow cytometry (reference value: 1.93%). Format: functional.
Series [18] concerns PC-3. The series is described as follows: cells. Particulars: Homo sapiens, PC-3, 72 h. Format: functional, cell-based.
Description: Antiproliferative activity against human PC-3 cells assessed as inhibition of cell growth incubated for 72 hrs by MTT assay
Series [19] has as its target T3, Son of sevenless homolog 1 (Homo sapiens) (UniProt Q07889).
T3 sequence (whole entry): T2 sequence (Q07889 whole entry)
In words: Inhibition of SOS1 in human PC-3 cells assessed as downregulation of AKT phosphorylation at 12.5 uM incubated for 15 mins by Western blotting analysis. The format is cell-based.

The subject of series [20] is PC-3. In words: Antitumor activity against human PC-3 cells xenografted in BALB/c mouse assessed as reduction in tumor weight at 5 mg/kg,ip administrated once every 4 days for 24 days. The format is functional, organism-based. The note with it: time 24.0 day.
A short description of series [21]: Toxicity in BALB/c mouse xenografted with human PC-3 cells assessed as change in body weight at 5 mg/kg,ip administrated once every 4 days for 24 days. Format: organism-based. Particulars: in vivo, 576 h, time 24 day.
Series [22] relates to PC-3. In words: Induction of cell cycle arrest in human PC-3 cells assessed as accumulation of cells at G1 phase at 2.5 uM by PI staining based flow cytometry (reference value: 75.66%). The format is functional.

T1 sequence (P00533 whole entry): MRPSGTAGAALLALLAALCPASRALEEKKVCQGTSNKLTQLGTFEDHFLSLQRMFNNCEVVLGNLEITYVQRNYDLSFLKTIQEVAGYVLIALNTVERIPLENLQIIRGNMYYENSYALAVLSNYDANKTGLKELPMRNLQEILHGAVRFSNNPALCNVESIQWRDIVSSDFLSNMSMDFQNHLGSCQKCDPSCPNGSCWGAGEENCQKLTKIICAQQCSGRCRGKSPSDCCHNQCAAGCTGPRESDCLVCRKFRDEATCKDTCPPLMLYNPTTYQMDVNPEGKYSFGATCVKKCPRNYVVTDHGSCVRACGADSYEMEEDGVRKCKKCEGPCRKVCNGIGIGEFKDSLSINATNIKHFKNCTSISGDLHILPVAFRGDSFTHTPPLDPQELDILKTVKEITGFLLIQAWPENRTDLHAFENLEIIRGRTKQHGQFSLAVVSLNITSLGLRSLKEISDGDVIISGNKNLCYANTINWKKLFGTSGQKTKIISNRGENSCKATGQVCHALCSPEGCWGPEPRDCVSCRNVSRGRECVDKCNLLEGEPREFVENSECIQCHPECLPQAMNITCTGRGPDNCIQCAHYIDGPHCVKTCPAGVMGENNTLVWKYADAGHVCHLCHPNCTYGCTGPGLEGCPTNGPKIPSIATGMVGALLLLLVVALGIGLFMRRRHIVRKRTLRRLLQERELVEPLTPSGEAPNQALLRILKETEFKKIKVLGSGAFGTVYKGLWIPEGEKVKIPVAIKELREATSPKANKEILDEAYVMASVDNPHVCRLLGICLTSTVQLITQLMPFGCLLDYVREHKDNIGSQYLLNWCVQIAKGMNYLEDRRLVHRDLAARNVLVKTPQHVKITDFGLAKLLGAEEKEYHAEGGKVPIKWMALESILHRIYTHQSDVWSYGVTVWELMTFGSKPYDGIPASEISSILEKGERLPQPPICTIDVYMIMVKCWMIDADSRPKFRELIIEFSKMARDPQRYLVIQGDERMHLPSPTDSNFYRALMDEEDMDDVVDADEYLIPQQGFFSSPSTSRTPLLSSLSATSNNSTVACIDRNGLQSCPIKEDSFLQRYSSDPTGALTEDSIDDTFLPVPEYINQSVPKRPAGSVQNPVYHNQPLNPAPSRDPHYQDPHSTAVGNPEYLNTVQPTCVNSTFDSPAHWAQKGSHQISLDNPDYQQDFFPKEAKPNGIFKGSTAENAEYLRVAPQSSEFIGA

With `COc1cc2ncnc(N[C@H](C)c3cccc(F)c3)c2cc1OC1CCOCC1`, the Activity is 0.57% in [1]; “Dose-Dependent Effect” in series [2]; “Non-Toxic” in series [4]; “Non-Toxic” in series [5]; “Dose-Dependent Effect” in [9]; “Non-Toxic” in series [12]. Further, the Activity result in series [13] is “Toxic”; in [14] it was 79.45%; in series [16] it was “Dose-Dependent Effect”; in series [17] it was 2.74%; in series [21] it was “Toxic”; in series [22] it was 81.85%. The inhibition result in [3], in [8], in [15] and in [19] was “Active” throughout. The IC50 in [6] turned out to be 3920 nM; in series [7] it was 550 nM; in series [10], 42.1 nM; in series [11], 430 nM; in series [18], 450 nM. Further, the outcome in [20] was Active.

The record behind these values is ChEMBL document CHEMBL5543153, “Discovery of a Potent Dual Son of Sevenless 1 (SOS1) and Epidermal Growth Factor Receptor (EGFR) Inhibitor for the Treatment of Prostate Cancer” (J Med Chem, 2024).
